Measured values published in patent US5726319A, “Biphenyl substituted dipeptide analogs promote release of growth hormone” (Merck & Co., Inc., priority 1995, dated 1998).

These compounds were tested on rat pituitary cells (assay: growth hormone secretion in rat pituitary cell cultures (GH release, RIA)). Conditions: GH release from cultured rat anterior pituitary cells, 15 min incubation at 37° C., rat GH measured by double antibody RIA; read-out: ED50 (the source's name).
Format: cell-based
Method: The bioassay employed for the determination of growth hormone secretion in rat pituitary cell cultures has been previously described--Cheng, K.; Chan, W. W.-S; Barreto, A.; Convey, E. M.; Smith, R. G. Endocrinology 124: 2791-2798 (1989)--and is summarized here: The Wistar male rats (150-200 grams) were obtained from Charles River Laboratories (Wilmington, Mass). Rats were maintained at a constant temperature (25° C.) on a 14-hr light, 10-hr dark cycle. Rat chow and water were available ad libitum. The animals were sacrificed by decapitation and anterior lobes of the pituitary quickly removed. Rat pituitary cells were isolated from pituitaries by enzymatic digestion with 0.2% collagenase and 0.2% hyaluronidase in Hank's Balanced Salt Solution. For culture, the cells were suspended in culture medium and adjusted to 1.5×10^5 cells/ml, and 1.0 ml of this suspension was placed in each well of a 24-well tray (Costar, Cambridge, Mass.). Cells were maintained in a humidified 5% CO2 -95% air atmosphere at 37° C. for 3 to 4 days. The culture medium consisted of DMEM containing 0.37% NaHCO3, 10% horse serum, 2.5% fetal bovine serum, 1% non-essential amino acids, 1% glutamine, 1% nystatin, and 0.1% gentamycin. On the day of an experiment, cells were washed twice 11/2 hrs prior to and once more immediately before the start of the experiment with the above culture medium containing 25 mM HEPES, pH 7.4. GH release was initiated by adding 1 ml of fresh medium containing test agents to each well in quadruplicate. Incubation was carded out at 37° C. for 15 min. After incubation, medium was removed and centrifuged at 2,000×g for 15 min to remove any cellular material. The supernatant fluid was removed and assayed for GH content. Rat GH in culture medium was measured by a double antibody RIA procedure using materials obtained from Dr. A. F. Parlow (Harbor-UCLA medical Center, Torrance, Calif.) and expressed in terms of the standard rat GH RP-2. ED50 values for test compounds were computed by fitting a four-parameter logistic function to the dose-response curve. Least squares estimates of the four-parameter logistic function coefficients and their variances were derived using the iterative algorithm described by Bates and Watts.

Row | Compound | EC50 [nM]
1 | CC(C)(N)C(=O)N[C@H](COCc1ccccc1)C(=O)NCc1ccc(-c2ccccc2NC(=O)NCCO)cc1.O=C(O)C(F)(F)F [Example 25, (R)-α-[(2-Amino-2-methyl-1-oxopropyl)amino]-N-[[(2'-[(2-hydroxyethylamino)carbonyl]amino][1,1'-biphenyl]-4-yl]-methyl]-3-[(phenylmethyl)oxy]propanamide, trifluoracetate] | > 500
2 | CC(C)(N)CC(=O)N[C@H](COCc1ccccc1)C(=O)NCc1ccc(-c2ccccc2NC(=O)NCCO)cc1.O=C(O)C(F)(F)F [Example 26, (R)-α-[(3-Amino-3-methyl-1-oxobutyl)amino]-N-[[(2'-[(2-hydroxyethylamino)carbonyl]amino][1,1'-biphenyl]-4-yl]-methyl]-3-[(phenylmethyl)oxy]propanamide, trifluoracetate] | > 500
3 | CC(C)(N)C(=O)N[C@H](COCc1ccccc1)C(=O)NCc1ccc(-c2ccccc2-c2nnn[nH]2)cc1.O=C(O)C(F)(F)F [Example 27, (R)-α-[(2-Amino-2-methyl-1-oxypropyl)amino]-N-[[2'-(1H-tetrazol-5-yl)-[1,1'-biphenyl]-4-yl]methyl]-3-[(phenylmethyl)oxy]propanamide, trifluoracetate] | > 500
4 | CC(C)(N)CC(=O)N[C@H](COCc1ccccc1)C(=O)NCc1ccc(-c2ccccc2-c2nnn[nH]2)cc1.O=C(O)C(F)(F)F [Example 28, (R)-α-[(3-Amino-3-methyl-1-oxybutyl)amino]-N-[[2'-(1H-tetrazol-5-yl)-[1,1'-biphenyl]-4-yl]methyl]-3-[(phenylmethyl)oxy]propanamide, trifluoracetate] | > 500
5 | COc1ccc(N(Cc2ccc(-c3ccccc3-c3nnn[nH]3)cc2)C(=O)[C@@H](CCc2ccccc2)NC(=O)C(C)(C)N)cc1.O=C(O)C(F)(F)F [Example 29, (R)-α-[(2-Amino-2-methyl-1-oxypropyl)amino]-N-(4-methoxyphenyl)-N-[[2'-(1H-tetrazol-5-yl)-[1,1'-biphenyl]-4-yl]methyl]benzenebutanamide, trifluoroacetate] | > 500
6 | COc1ccc(N(Cc2ccc(-c3ccccc3-c3nnn[nH]3)cc2)C(=O)[C@@H](CCc2ccccc2)NC(=O)CC(C)(C)N)cc1.O=C(O)C(F)(F)F [Example 30, (R)-α-[(3-Amino-3-methyl-1-oxybutyl)amino]-N-(4-methoxyphenyl)-N-[[2'-(1H-tetrazol-5-yl)-[1,1'-biphenyl]-4-yl]methyl]-benzenebutanamide, trifluoroacetate] | > 500
7 | CC(C)(N)C(=O)N[C@H](CCc1ccccc1)C(=O)N(Cc1ccc(-c2ccccc2-c2nnn[nH]2)cc1)c1ccc(O)cc1.O=C(O)C(F)(F)F [Example 31, (R)-α-[(2-Amino-2-methyl-1-oxypropyl)amino]-N-(4-hydroxyphenyl)-N-[[2'-(1H-tetrazol-5-yl)-[1,1'-biphenyl]-4-yl]methyl]benzene-butanamide, trifluoroacetate] | > 500
8 | CNC(=O)Nc1ccccc1-c1ccc(N(C)C(=O)[C@@H](CCc2ccccc2)NC(=O)C(C)(C)N)cc1.O=C(O)C(F)(F)F [Example 33] | > 500
9 | (R)-α-[(2-Amino-2-methyl)-1-oxopropyl]amino-N -methyl-N -[2'-(1H -tetrazol-5-yl)[1,1'-biphenyl]-4-yl]butanamide, trifluoroacetate [Example 34] | < 500
10 | (R)-α-[(2-Amino-2-methyl)-1-oxopropyl]amino-N-methyl-N-[(2'-[[(methylamino)carbonyl]amino)methyl][1,1'-biphenyl]-4-yl]benzenebutanamide, trifluoroacetate [Example 35] | < 500
